Tests used:
SU-DHL-1 cells = test: SU-DHL-1 cell viability (MTS); type: cell-based; conditions: Homo sapiens; SU-DHL-1, 72 hours
Method: FIGS. 7A-7C. EP009 reduces ALCL cell viability through induction of caspase 3 mediated apoptosis. (A) SUP-M2, SU-DHL-1 or H2228 cells were cultured with increasing amounts of EP009 (0-10 μM) for 72 hours and cell viability measured with the MTS tetrazolium salt assay. Values represent mean absorbance (OD490-OD650 nm) normalized to vehicle (PBS) treated control cells, while error bars represent the standard deviation (n=3). (B) SU-DHL-1 cells were treated with vehicle (PBS) or increasing amounts of EP009 (0-50 μM) for 24 hours. Cells were then lysed, clarified, and subjected to Luminex multiplex analysis to detect activated caspase 3 and (C) cleaved PARP. Values represent MFI normalized to corresponding GAPDH MFI, while error bars represent the standard deviation (n=2). Representative data from three independent experiments are shown. Statistical significance was determined using Student's t-test. (*, p<0.05).
Cell viability was assessed with 3-(4,5-dimethylthiazol-2-yl)-5-(3-carboxymethoxyphenyl)-2-(4-sulfophenyl)-2H-tetrazolium salt (MTS) reagent (Promega) in triplicates according to the manufacturer's instructions. Three independent experiments were performed. The error bars represent standard deviation.

AKT1 = AKT1 (Homo sapiens, UniProt P31749); test: Kinase panel: AKT1; type: biochemical; conditions: 10 μM EP009
Method: (§1) Achieving JAK3 selectivity remains a significant challenge in the development of new small molecules for the treatment of cancer and immune-derived diseases. As such, the inventors employed cell-based screening assays of small-molecule libraries based upon the chemical scaffold of the established JAK3 inhibitor NC1153 (Stepkowski et al., J Immunol. (2005), 175(7):4236-4246) EP009 (FIG. 2A) was selected as a lead compound due to improved intrinsic stability (>95% purity in various solvents at 37° C. for 24 hours; FIG. 3) and high-degree of JAK3 selectivity. To test JAK3 versus JAK2 specificity of EP009, the IL-2/JAK3-dependent Kit225, and IL-3/JAK2-dependent BaF/3 cell lines were used. Kit225 and BaF/3 cells growing in the presence of IL-2 or IL-3, respectively, were treated with ascending concentrations of EP009 for 12 hours and cellular JAK3 and JAK2 tyrosine phosphorylation levels detected by Western blot analysis (FIGS. 2B and 2C). Following densitometric analysis, EP009 was determined to dose-dependently reduce IL-2-mediated JAK3 tyrosine phosphorylation with a cellular 50% inhibitory concentration (IC50) between 10 and 20 μM (FIG. 2B). […] To globally evaluate specificity, the inhibitory activity of EP009 was measured against a panel of protein kinases distributed throughout the kinome using the scanEDGE profiling service (KINOMEscan). […]

immunopurified JAK3 = target: T1, immunopurified JAK3 (Homo sapiens, UniProt P52333); test: In vitro JAK3 autokinase assay; type: biochemical; conditions: 1 μM ATP, densitometry analysis
T1 construct: immunopurified JAK3 from YT cells resuspended in kinase buffer; endogenous in cells; host or cells: YT cells (immunoprecipitate)

PAK1 = PAK1 (Homo sapiens, UniProt Q13153); test: Kinase panel: PAK1; type: biochemical; conditions: 10 μM EP009
Method: as §1

PLK3 = PLK3 (Homo sapiens, UniProt Q9H4B4); test: Kinase panel: PLK3; type: biochemical; conditions: 10 μM EP009
Method: as §1

AKT1, sequence (P31749 whole entry): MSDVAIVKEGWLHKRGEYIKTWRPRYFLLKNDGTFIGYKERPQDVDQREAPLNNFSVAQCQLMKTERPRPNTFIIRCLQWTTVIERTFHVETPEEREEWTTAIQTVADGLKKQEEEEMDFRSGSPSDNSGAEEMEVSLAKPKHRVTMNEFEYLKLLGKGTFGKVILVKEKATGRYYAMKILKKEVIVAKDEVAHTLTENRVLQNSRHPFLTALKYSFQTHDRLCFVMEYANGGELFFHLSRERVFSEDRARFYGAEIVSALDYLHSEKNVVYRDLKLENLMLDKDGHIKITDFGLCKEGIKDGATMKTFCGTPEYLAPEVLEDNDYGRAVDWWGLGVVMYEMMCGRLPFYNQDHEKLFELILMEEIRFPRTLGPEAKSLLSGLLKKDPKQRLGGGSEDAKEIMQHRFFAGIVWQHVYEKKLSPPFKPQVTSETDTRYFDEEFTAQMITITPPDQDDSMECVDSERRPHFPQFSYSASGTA
PAK1, sequence (Q13153 whole entry): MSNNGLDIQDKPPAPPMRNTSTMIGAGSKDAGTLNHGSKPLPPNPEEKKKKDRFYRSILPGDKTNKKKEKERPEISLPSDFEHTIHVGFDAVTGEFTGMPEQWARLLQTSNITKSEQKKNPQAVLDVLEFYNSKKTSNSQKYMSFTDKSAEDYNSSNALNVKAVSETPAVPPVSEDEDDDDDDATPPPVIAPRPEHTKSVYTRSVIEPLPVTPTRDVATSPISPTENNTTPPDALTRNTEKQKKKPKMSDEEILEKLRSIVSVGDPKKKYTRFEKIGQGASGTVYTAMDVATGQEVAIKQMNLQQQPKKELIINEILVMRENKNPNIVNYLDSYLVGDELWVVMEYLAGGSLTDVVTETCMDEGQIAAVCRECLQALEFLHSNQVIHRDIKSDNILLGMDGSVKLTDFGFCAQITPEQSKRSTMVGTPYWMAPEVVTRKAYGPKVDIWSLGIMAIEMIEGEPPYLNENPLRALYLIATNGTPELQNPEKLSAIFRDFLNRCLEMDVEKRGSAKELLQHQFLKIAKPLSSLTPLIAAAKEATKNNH
T1 sequence (P52333 whole entry): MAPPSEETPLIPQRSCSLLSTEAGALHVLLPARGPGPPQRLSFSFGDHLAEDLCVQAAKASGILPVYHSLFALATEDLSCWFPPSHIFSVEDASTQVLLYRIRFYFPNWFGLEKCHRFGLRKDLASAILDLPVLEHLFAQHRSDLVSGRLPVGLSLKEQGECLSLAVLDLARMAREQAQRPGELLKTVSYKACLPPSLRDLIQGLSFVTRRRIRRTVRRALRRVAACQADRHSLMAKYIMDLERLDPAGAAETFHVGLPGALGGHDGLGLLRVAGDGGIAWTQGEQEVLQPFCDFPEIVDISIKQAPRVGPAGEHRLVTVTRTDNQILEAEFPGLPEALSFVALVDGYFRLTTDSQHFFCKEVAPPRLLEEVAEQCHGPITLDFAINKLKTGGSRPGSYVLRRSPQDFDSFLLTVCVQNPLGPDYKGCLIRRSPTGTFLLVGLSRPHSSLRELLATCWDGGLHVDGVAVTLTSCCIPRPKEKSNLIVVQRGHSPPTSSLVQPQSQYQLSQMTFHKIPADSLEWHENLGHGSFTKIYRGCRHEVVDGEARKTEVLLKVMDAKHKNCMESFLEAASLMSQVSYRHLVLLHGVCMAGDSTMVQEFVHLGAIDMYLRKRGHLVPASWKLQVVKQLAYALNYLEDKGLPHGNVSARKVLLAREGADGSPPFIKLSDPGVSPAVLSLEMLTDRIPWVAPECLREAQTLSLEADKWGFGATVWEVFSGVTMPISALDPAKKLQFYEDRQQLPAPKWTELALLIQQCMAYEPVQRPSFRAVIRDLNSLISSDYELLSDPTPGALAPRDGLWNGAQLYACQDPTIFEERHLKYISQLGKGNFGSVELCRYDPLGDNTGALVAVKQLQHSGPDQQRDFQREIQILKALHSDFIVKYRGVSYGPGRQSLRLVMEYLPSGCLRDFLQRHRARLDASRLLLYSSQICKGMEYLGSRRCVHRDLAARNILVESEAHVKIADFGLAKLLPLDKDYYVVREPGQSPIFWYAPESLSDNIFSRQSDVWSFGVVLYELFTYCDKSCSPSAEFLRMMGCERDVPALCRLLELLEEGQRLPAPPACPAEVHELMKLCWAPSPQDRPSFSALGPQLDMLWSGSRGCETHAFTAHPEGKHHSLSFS
PLK3, sequence (Q9H4B4 whole entry): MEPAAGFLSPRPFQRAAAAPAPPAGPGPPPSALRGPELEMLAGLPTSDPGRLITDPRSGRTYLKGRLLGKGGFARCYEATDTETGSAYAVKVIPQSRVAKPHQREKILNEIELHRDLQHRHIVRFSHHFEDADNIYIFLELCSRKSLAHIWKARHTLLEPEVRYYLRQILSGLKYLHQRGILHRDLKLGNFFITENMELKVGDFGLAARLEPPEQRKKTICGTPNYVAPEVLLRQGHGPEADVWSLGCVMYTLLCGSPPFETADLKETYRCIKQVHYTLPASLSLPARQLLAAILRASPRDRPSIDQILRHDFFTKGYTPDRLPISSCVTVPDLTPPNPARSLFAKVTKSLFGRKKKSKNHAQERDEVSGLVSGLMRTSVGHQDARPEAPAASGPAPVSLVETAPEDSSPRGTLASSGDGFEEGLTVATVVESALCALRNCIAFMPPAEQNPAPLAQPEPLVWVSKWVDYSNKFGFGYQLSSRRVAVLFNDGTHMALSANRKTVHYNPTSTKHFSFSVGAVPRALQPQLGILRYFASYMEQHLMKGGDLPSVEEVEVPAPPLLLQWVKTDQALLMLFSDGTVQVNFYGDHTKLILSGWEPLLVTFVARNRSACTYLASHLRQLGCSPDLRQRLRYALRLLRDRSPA

C=C1CCCCCCCCCC(CO)C1=O (centres unmarked) [EP009, 2-(Hydroxymethyl)-12-methylenecyclododecanone]
IC50 (SU-DHL-1 cells): 5 µM
Kinase Activity (% of Control) (AKT1): 100 % of Control
IC50 (immunopurified JAK3): 1 to 2.5 µM
Kinase Activity (% of Control) (PAK1): 100 % of Control
Kinase Activity (% of Control) (PLK3): 92 % of Control

Source: US9371265B2, “Compositions and methods related to inhibitors of JAK kinase” (EP PHARMA, INC., priority 2012, dated 2016)
